Each structure is given as a SMILES string.

This test concerns the target Signal transducer and activator of transcription 3 (Homo sapiens, UniProt P40763). Briefly: In Vitro Assay. As to the method: Except where indicated, nuclear extracts were pre-incubated with compound for 30 min at room temperature prior to incubation with the radiolabeled probe for 30 min at 30° C. before subjecting to EMSA analysis. Where appropriate, bands corresponding to Stat3:DNA complexes were scanned and quantified for each concentration of compound using ImageJ and plotted as percent of control (DMSO) against concentration of compound, from which the IC50 values were derived.

Signal transducer and activator of transcription 3, sequence (P40763 whole entry): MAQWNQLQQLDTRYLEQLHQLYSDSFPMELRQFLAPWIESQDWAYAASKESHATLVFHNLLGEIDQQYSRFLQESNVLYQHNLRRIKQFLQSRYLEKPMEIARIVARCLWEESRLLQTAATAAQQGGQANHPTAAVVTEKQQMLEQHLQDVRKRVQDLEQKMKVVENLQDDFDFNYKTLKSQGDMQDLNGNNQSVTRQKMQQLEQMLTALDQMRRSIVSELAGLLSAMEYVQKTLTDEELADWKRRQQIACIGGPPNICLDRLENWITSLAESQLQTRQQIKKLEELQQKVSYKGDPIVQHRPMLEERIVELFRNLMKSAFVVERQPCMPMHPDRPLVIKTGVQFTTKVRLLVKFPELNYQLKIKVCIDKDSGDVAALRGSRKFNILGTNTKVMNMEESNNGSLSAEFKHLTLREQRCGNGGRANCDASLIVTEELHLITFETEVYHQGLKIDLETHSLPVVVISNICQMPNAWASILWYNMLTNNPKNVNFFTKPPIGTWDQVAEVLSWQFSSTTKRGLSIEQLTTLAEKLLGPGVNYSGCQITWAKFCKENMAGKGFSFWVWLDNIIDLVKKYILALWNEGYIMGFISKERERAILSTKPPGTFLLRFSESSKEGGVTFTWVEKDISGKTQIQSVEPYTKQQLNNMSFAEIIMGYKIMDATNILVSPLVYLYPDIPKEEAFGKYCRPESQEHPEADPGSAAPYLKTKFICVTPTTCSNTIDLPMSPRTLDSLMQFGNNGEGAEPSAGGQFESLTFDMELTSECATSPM

As for `O=C(O)c1ccc(N(Cc2cnc(C3CCCCC3)cn2)C(=O)[C@H]2CCN2S(=O)(=O)c2c(F)c(F)c(F)c(Cl)c2F)cc1O` [US11299480, Example 152], the IC50 (in general, the concentration needed to halve the response being measured) amounted to 422 nM.

Values taken from BindingDB's records for patent US11299480 (University of Hawaii, 2022).
